US6514692B2, “Method for treatment of immunodeficiency virus infection” (priority 1996, dated 2003)
Where “and” joins values, the source holds several entries; their conditions need not be identical. Identical values can stand only once. Where no end group is shown, it is not given here.

Columns and labels:
[1] = tested on: ME180 cells; experiment: toxicity (XTT) in transmission inhibition assay; settings: for TOXICITY VALUES (XTT), single samples: samples 1-3
Description: (§1) ME180 cells, a cervical epithelial cell line, were obtained from the American Type Culture Collection. These cells were thawed from liquid nitrogen and grown in RPMI 1640 medium supplemented with 10t fetal bovine serum, glutamine and antibiotics. The cells were adherent and were trypsinized (0.5% trypsin in HBSS) to remove them from the flask for passaging and use in assays. For use in the microtiter transmission inhibition assay, ME180 cells were trypsinized, washed and seeded in 96-well flat bottom microtiter plates (COSTAR) at a density of 5×10^3 cells per well. The cells were incubated at 37° C. for 24 hours prior to the tart of the assay. H9 cells chronically infected with he SK1 isolate of HIV-1 were treated with 200 μg/ml mitomycin C for 60 minutes at 37° C. After treatment the cells were washed three times with tissue culture medium. The chronically infected lymphocytes were added to each well at a density of 2×10^4 cells per well. The concentration of mitomycin C used in the treatment of the lymphocytes was chosen to allow lymphocyte survival for the period of time required to transmit virus to the uninfected ME180 cells, but to die prior to the time of assay so as not to contribute to the p24 signal used as the endpoint (see below). In the transmission assay the lytic peptides D4E1 and D2A21, with and without 150 μg/ml pig mucin, were added prior to the addition of chronically infected cells or were mixed with the chronically infected cells prior to their addition to the monolayer of ME180 cells. Mucin was included because it is an abundant constituent of the normal vaginal secretions of a human being, thus any chemotherapeutic agent targeting HIV should be active in its presence if it is to have clinical value. […] The lymphocytes and peptide were co-cultured with the ME180 cells for 6 hours and then removed by washing the ME180 monolayer four times with PBS. The plate was then incubated at 37° C. for six days. Medium was removed and changed every 48 hours during the incubation stage. No further peptide was added after the initial dose. At six days post-co-cultivation, the supernatant was removed from the wells and evaluated for the quantity of p24 antigen by ELISA. The ELISA was performed according to the manufacturer's recommendations. The amount of virus production in wells treated with various concentrations of the peptides was evaluated with appropriate cell and virus controls. Data are reported as a percent of virus control at each drug concentration. Linear regression analysis was used to calculate the […] and IC95 concentrations of the transmission inhibitor. […] TI represents the toxicity index, which is the ratio of the TC50/IC50, and is an indication of the relative concentrations window that exists between efficacy and toxicity.

[2] = in vitro; settings: human, ME180 cells
Description: as §1

[3] = 0.32 μg/ml, with 150 μg/ml pig mucin
[4] = 1 μg/ml, with 150 μg/ml pig mucin
[5] = 3.2 μg/ml, with 150 μg/ml pig mucin
[6] = 10 μg/ml, with 150 μg/ml pig mucin
[7] = 32 μg/ml, with 150 μg/ml pig mucin
[8] = 100 μg/ml, with 150 μg/ml pig mucin

FKLRAKIKVRLRAKIKL [D4E1]
TOXICITY VALUES (XTT), MEAN ([1]; 0.32 μg/ml, no mucin): 0.521 O.D. @ 450/650 nm
TOXICITY VALUES (XTT), single samples ([1]; 0.32 μg/ml, no mucin): 0.518 O.D. @ 450/650 nm and 0.528 O.D. @ 450/650 nm and 0.516 O.D. @ 450/650 nm
TOXICITY VALUES (XTT), MEAN [1, 3]: 0.521 O.D. @ 450/650 nm
TOXICITY VALUES (XTT), single samples [1, 3]: 0.518 O.D. @ 450/650 nm and 0.528 O.D. @ 450/650 nm
TOXICITY VALUES (XTT), MEAN ([1]; 1 μg/ml, no mucin): 0.523 O.D. @ 450/650 nm
TOXICITY VALUES (XTT), single samples ([1]; 1 μg/ml, no mucin): 0.535 O.D. @ 450/650 nm and 0.523 O.D. @ 450/650 nm and 0.511 O.D. @ 450/650 nm
TOXICITY VALUES (XTT), MEAN [1, 4]: 0.523 O.D. @ 450/650 nm
TOXICITY VALUES (XTT), single samples [1, 4]: 0.535 O.D. @ 450/650 nm and 0.523 O.D. @ 450/650 nm and 0.511 O.D. @ 450/650 nm
TOXICITY VALUES (XTT), MEAN ([1]; 3.2 μg/ml, no mucin): 0.503 O.D. @ 450/650 nm
TOXICITY VALUES (XTT), single samples ([1]; 3.2 μg/ml, no mucin): 0.486 O.D. @ 450/650 nm and 0.513 O.D. @ 450/650 nm
TOXICITY VALUES (XTT), MEAN [1, 5]: 0.503 O.D. @ 450/650 nm
TOXICITY VALUES (XTT), single samples [1, 5]: 0.486 O.D. @ 450/650 nm and 0.513 O.D. @ 450/650 nm
TOXICITY VALUES (XTT), MEAN ([1]; 10 μg/ml, no mucin): 0.515 O.D. @ 450/650 nm
TOXICITY VALUES (XTT), single samples ([1]; 10 μg/ml, no mucin): 0.493 O.D. @ 450/650 nm and 0.526 O.D. @ 450/650 nm and 0.524 O.D. @ 450/650 nm
TOXICITY VALUES (XTT), MEAN [1, 6]: 0.515 O.D. @ 450/650 nm
TOXICITY VALUES (XTT), single samples [1, 6]: 0.493 O.D. @ 450/650 nm and 0.526 O.D. @ 450/650 nm and 0.524 O.D. @ 450/650 nm
TOXICITY VALUES (XTT), MEAN ([1]; 32 μg/ml, no mucin): 0.529 O.D. @ 450/650 nm
TOXICITY VALUES (XTT), single samples ([1]; 32 μg/ml, no mucin): 0.551 O.D. @ 450/650 nm and 0.513 O.D. @ 450/650 nm and 0.524 O.D. @ 450/650 nm
TOXICITY VALUES (XTT), MEAN [1, 7]: 0.529 O.D. @ 450/650 nm
TOXICITY VALUES (XTT), single samples [1, 7]: 0.551 O.D. @ 450/650 nm and 0.513 O.D. @ 450/650 nm and 0.524 O.D. @ 450/650 nm
TOXICITY VALUES (XTT), MEAN ([1]; 100 μg/ml, no mucin): 0.143 O.D. @ 450/650 nm
TOXICITY VALUES (XTT), single samples ([1]; 100 μg/ml, no mucin): 0.138 O.D. @ 450/650 nm and 0.162 O.D. @ 450/650 nm and 0.128 O.D. @ 450/650 nm
TOXICITY VALUES (XTT), MEAN [1, 8]: 0.143 O.D. @ 450/650 nm
TOXICITY VALUES (XTT), single samples [1, 8]: 0.138 O.D. @ 450/650 nm and 0.162 O.D. @ 450/650 nm and 0.128 O.D. @ 450/650 nm
viability at 6 h, 0.32 µg/mL [2]: 98.6%
viability at 6 h, 1 µg/mL [2]: 99.2%
viability at 6 h, 3.2 µg/mL [2]: 95.4%
viability at 6 h, 10 µg/mL [2]: 97.7%
viability at 6 h, 32 µg/mL [2]: 100%
viability at 6 h, 100 µg/mL [2]: 27.1%
